Reference: patent publication US20230000842A1, “METHODS OF TREATING CARTILAGE DISORDERS THROUGH INHIBITION OF CLK AND DYRK” (SAMUMED, LLC, priority 2019, published 2023)

Key:
[1] = system: primary human mesenchymal stem cells (hMSCs); experiment: Chondrogenesis screening using primary human mesenchymal stem cells; format: cell-based; conditions: Homo sapiens, Mesenchymal stem cells, hMSC chondrogenesis; for EC50: concentration required to induce 50% levels of chondrogenesis with TGF-β3 as positive control, read-out: Conc (nM) of 50% TGF-β3 activity; for Emax: maximum activity relative to TGF-β3 (10 ng/mL) positive control, read-out: Max. Activity as % TGF-β3 activity
Procedure, shortened: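 Primary hMSCs at passage 3–6 were treated across compound concentrations, with TGF-β3 as positive control. Chondrogenic nodule area per well was normalized to 3 DMSO wells on the same plate (fold over DMSO, 2–3 replicates). EC50, maximum activity and the dose reaching it were derived.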

CLK3 kinase = CLK3 kinase (Homo sapiens, UniProt P49761); experiment: CLK3 kinase activity assay (Z-lyte FRET); format: biochemical; conditions: Z-lyte Ser/Thr 18 peptide, 156 μM ATP, 1 h at room temperature;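 also: kinase activity read as coumarin/fluorescein emission ratio by FRET, unphosphorylated peptide as 0% and phosphorylated peptide as 100% control, values from non-linear regression of dose-response curves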
Sequence of CLK3 kinase (P49761 whole entry): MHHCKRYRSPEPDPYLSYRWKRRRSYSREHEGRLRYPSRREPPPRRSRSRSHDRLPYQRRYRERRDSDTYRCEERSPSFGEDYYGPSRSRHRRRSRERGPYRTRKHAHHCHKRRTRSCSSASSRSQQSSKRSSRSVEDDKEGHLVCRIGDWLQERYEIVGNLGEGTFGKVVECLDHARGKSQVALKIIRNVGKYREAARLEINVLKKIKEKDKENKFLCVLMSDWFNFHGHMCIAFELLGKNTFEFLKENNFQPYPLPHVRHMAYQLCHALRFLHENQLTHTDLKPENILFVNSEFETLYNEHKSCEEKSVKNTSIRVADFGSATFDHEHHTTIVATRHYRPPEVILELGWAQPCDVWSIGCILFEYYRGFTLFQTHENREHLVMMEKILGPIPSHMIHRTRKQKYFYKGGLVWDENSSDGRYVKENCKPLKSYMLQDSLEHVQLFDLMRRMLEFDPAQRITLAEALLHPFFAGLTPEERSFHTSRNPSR

[2] = system: Wnt pathway activity (SW480 colon carcinoma cells stably expressing the Sp5-Luc reporter); experiment: Wnt pathway activity screening assay (Sp5-Luc reporter gene assay); conditions: Homo sapiens, SW480, Table 4; SW480 cells stably expressing Sp5-Luc reporter, 10-point dose-response from 10 μM, 36 to 48 hours
CLK2 kinase = CLK2 kinase (Homo sapiens, UniProt P49760); experiment: CLK2 kinase activity assay (Z-lyte FRET); format: biochemical; conditions: Z-lyte Ser/Thr 6 peptide, 60 μM ATP, 1 h at room temperature;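 also: FRET read-out as coumarin to fluorescein emission ratio, unphosphorylated peptide as 0% and phosphorylated peptide as 100% controls, duplicate reactions, non-linear regression fit of dose-response curves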
Sequence of CLK2 kinase (P49760 whole entry): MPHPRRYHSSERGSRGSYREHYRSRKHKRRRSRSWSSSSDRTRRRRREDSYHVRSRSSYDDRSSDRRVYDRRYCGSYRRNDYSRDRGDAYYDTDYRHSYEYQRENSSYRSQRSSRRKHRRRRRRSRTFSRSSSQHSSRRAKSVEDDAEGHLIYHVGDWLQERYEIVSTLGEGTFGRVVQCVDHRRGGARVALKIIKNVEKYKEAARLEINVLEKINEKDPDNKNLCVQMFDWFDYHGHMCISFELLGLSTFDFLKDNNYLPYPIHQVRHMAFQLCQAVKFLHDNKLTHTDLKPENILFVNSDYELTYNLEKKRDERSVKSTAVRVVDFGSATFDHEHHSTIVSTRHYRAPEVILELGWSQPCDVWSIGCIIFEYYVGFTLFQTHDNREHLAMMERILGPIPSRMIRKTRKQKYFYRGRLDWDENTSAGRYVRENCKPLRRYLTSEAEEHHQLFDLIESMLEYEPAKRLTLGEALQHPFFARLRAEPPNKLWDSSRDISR

| Compound | EC50 [1] [nM] | Emax [1] [%] | EC50 (CLK3 kinase) [µM] | EC50 [2] [µM] | EC50 (CLK2 kinase) [µM] |
| --- | --- | --- | --- | --- | --- |
| c1cncc(-c2ccc3[nH]nc(-c4nc5c(-c6ccoc6)cncc5[nH]4)c3c2)c1 [compound 229] | 100 | 149 | 0.044 | 0.0454 | 0.002 |
| CCCC(=O)Nc1cncc(-c2cnc3[nH]nc(-c4nc5c(-c6ccoc6)cccc5[nH]4)c3c2)c1 [compound 230] | 100 | 111 | 0.087 | 0.063 | 0.004 |
| CCCCC(=O)Nc1cncc(-c2ccc3[nH]nc(-c4nc5c(-c6ccoc6)cncc5[nH]4)c3n2)c1 [compound 231] | 10 | 73.6 | 0.361 | > 10 | 0.003 |
| CC(C)(C)C(=O)Nc1cncc(-c2cnc3[nH]nc(-c4nc5c(-c6ccoc6)cncc5[nH]4)c3c2)c1 [compound 232] | 30 | 144 | 0.143 | 0.07 | 0.005 |
| CC(C)CC(=O)Nc1cncc(-c2cc3c(-c4nc5c(-c6ccoc6)cccc5[nH]4)n[nH]c3cn2)c1 [compound 233] | – | 58 | 0.521 | 0.0553 | 0.008 |
| O=C(Cc1ccccc1)Nc1cncc(-c2ccc3[nH]nc(-c4nc5c(-c6ccoc6)cncc5[nH]4)c3c2)c1 [compound 234] | 30 | 102 | 0.12 | 0.033 | 0.006 |
| O=C(Nc1cncc(-c2cnc3[nH]nc(-c4nc5c(-c6ccoc6)cncc5[nH]4)c3c2)c1)c1ccccc1 [compound 235] | 100 | 110 | 2.63 | 0.051 | 0.008 |
| CC(C)Nc1cncc(-c2ccc3[nH]nc(-c4nc5c(-c6ccoc6)nccc5[nH]4)c3c2)c1 [compound 236] | 30 | 90.2 | 0.205 | 0.0435 | 0.019 |
| CC(C)Nc1cncc(-c2cnc3[nH]nc(-c4nc5c(-c6ccoc6)nccc5[nH]4)c3c2)c1 [compound 237] | 30 | 72 | 0.134 | 0.0526 | 0.007 |
| CC(C)Nc1cncc(-c2ccc3[nH]nc(-c4nc5c(-c6ccoc6)nccc5[nH]4)c3n2)c1 [compound 238] | 30 | 76.2 | 0.23 | 0.297 | 0.002 |
| CC(C)Nc1cncc(-c2ccc3[nH]nc(-c4nc5c(-c6ccoc6)cncc5[nH]4)c3n2)c1 [compound 239] | 30 | 75.3 | 0.087 | 0.597 | 0.002 |
| CC(C)Nc1cncc(-c2ccc3[nH]nc(-c4nc5c(-c6ccoc6)ccnc5[nH]4)c3n2)c1 [compound 240] | 100 | 64.2 | 0.113 | 0.298 | 0.002 |
| Cc1ccncc1-c1ccc2[nH]nc(-c3nc4c(-c5ccsc5)nccc4[nH]3)c2c1 [compound 242] | 10 | 156 | 0.076 | 0.0189 | 0.015 |
| CCC(=O)Nc1cncc(-c2cnc3[nH]nc(-c4nc5c(-c6ccsc6)cccc5[nH]4)c3c2)c1 [compound 243] | 100 | 167 | 0.062 | 0.01 | 0.005 |
| CCC(=O)Nc1cncc(-c2ccc3[nH]nc(-c4nc5c(-c6ccsc6)cncc5[nH]4)c3c2)c1 [compound 244] | 30 | 203 | 0.064 | 0.002 | 0.016 |
| CCCC(=O)Nc1cncc(-c2ccc3[nH]nc(-c4nc5c(-c6ccsc6)ccnc5[nH]4)c3c2)c1 [compound 245] | 30 | 72.6 | 9.84 | 0.0077 | 0.034 |
| CCCC(=O)Nc1cncc(-c2ccc3[nH]nc(-c4nc5c(-c6ccsc6)cncc5[nH]4)c3c2)c1 [compound 246] | – | 42 | 0.021 | 0.0615 | 0.003 |
| CCCC(=O)Nc1cncc(-c2ccc3[nH]nc(-c4nc5c(-c6ccsc6)cncc5[nH]4)c3n2)c1 [compound 247] | 20.6 | 58.4 | 0.048 | 3.64 | 0.002 |
| CCNCc1cncc(-c2cc3c(-c4nc5c(-c6ccsc6)nccc5[nH]4)n[nH]c3cn2)c1 [compound 249] | 30 | 67.7 | 0.03 | 0.0593 | 0.001 |
| CN(C)Cc1cncc(-c2cnc3[nH]nc(-c4nc5c(-c6ccsc6)cncc5[nH]4)c3c2)c1 [compound 252] | – | 91.3 | 0.118 | 0.057 | 0.002 |

| Compound | EC50 [1] [nM] | Emax [1] [%] | EC50 (CLK3 kinase) [µM] | EC50 [2] [µM] | EC50 (CLK2 kinase) [µM] |
| --- | --- | --- | --- | --- | --- |
| FC1(F)CCN(Cc2cncc(-c3ccc4[nH]nc(-c5nc6c(-c7ccsc7)cncc6[nH]5)c4c3)c2)C1 [compound 253] | – | 81.3 | 0.026 | 0.0018 | 0.007 |
| c1cncc(-c2cnc3[nH]nc(-c4nc5c(-c6cccs6)cccc5[nH]4)c3c2)c1 [compound 254] | – | 41.6 | 0.043 | 0.012 | 0.003 |
| CCC(=O)Nc1cncc(-c2cnc3[nH]nc(-c4nc5c(-c6cccs6)cncc5[nH]4)c3c2)c1 [compound 255] | – | 69.8 | 0.062 | 0.004 | 0.003 |
| CC(C)CC(=O)Nc1cncc(-c2ccc3[nH]nc(-c4nc5c(-c6cccs6)cncc5[nH]4)c3c2)c1 [compound 256] | – | 53.3 | 0.062 | 0.0001 | 0.009 |
| O=C(Nc1cncc(-c2cc3c(-c4nc5c(-c6cccs6)nccc5[nH]4)n[nH]c3cn2)c1)C1CC1 [compound 257] | – | 68.3 | 0.115 | 0.0222 | 0.007 |
| CN(C)c1cncc(-c2ccc3[nH]nc(-c4nc5c(-c6cccs6)cncc5[nH]4)c3n2)c1 [compound 258] | 10 | 65.6 | 0.083 | 0.71 | 0.002 |
| c1csc(-c2cncc3[nH]c(-c4n[nH]c5ncc(-c6cncc(CNCC7CCCC7)c6)cc45)nc23)c1 [compound 259] | – | 74.6 | 0.167 | 0.098 | 0.004 |
| CN(C)CCOc1cncc(-c2ccc3[nH]nc(-c4nc5c(-c6cccs6)cccc5[nH]4)c3n2)c1 [compound 261] | 10 | 142 | 0.15 | 3.11 | 0.002 |
| CC(C)(C)C(=O)Nc1cncc(-c2ccc3[nH]nc(-c4nc5c(-c6ccc(F)s6)ccnc5[nH]4)c3c2)c1 [compound 262] | 30 | 120 | 0.754 | 0.0167 | 0.085 |
| CC(C)(C)C(=O)Nc1cncc(-c2cc3c(-c4nc5c(-c6ccc(F)s6)nccc5[nH]4)n[nH]c3cn2)c1 [compound 263] | – | 40.9 | 0.358 | 0.0353 | 0.018 |
| CC(C)(C)C(=O)Nc1cncc(-c2ccc3[nH]nc(-c4nc5c(-c6ccc(Cl)s6)cncc5[nH]4)c3n2)c1 [compound 265] | 10 | 84.7 | 0.091 | 0.551 | 0.008 |
| CC(C)CC(=O)Nc1cncc(-c2ccc3[nH]nc(-c4nc5c(-c6ccc(Cl)s6)cncc5[nH]4)c3n2)c1 [compound 266] | 10 | 60.6 | 0.067 | 1.48 | 0.015 |
| O=C(Nc1cncc(-c2ccc3[nH]nc(-c4nc5c(-c6ccc(Cl)s6)nccc5[nH]4)c3n2)c1)C1CCC1 [compound 267] | 30 | 60.2 | 9.84 | 0.823 | 0.008 |
| O=C(Nc1cncc(-c2ccc3[nH]nc(-c4nc5c(-c6ccc(Cl)s6)cncc5[nH]4)c3n2)c1)C1CCC1 [compound 268] | 30 | 67.9 | 0.145 | 0.8 | 0.012 |
| O=C(Nc1cncc(-c2ccc3[nH]nc(-c4nc5c(-c6ccc(Cl)s6)ccnc5[nH]4)c3n2)c1)C1CCC1 [compound 269] | 10 | 102 | 0.183 | 0.354 | 0.012 |
| Clc1ccc(-c2cncc3[nH]c(-c4n[nH]c5ccc(-c6cncc(CN7CCCC7)c6)nc45)nc23)s1 [compound 270] | 10 | 62 | 0.088 | 3.33 | 0.004 |
| Cc1ccc(-c2cccc3[nH]c(-c4n[nH]c5ccc(-c6cncc(N)c6)nc45)nc23)s1 [compound 271] | 10 | 87.9 | 0.034 | 0.0663 | 0.002 |
| Cc1ccc(-c2nccc3[nH]c(-c4n[nH]c5ccc(-c6cncc(N)c6)cc45)nc23)s1 [compound 272] | 2700 | 163 | 0.052 | 0.0019 | 0.005 |
| Cc1ccc(-c2nccc3[nH]c(-c4n[nH]c5cnc(-c6cncc(N)c6)cc45)nc23)s1 [compound 273] | 10 | 259 | 0.029 | 0.0092 | 0.004 |
